Source: PubChem BioAssay (NCI)
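Cultured in 96-well plates, cells were exposed to test compound for 48 hours across five concentrations. Here, GI50 denotes the concentration required for 50% inhibition of growth. TGI: total growth inhibition.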

Columns and labels:
Experiment in all cases: NCI-60 cell line screen, 48 h
OVCAR-8 ovarian = tested on: OVCAR-8 ovarian
PC-3 prostate = tested on: PC-3 prostate
SF-539 CNS = tested on: SF-539 CNS
OVCAR-4 ovarian = tested on: OVCAR-4 ovarian
T-47D breast = tested on: T-47D breast
SK-MEL-5 melanoma = tested on: SK-MEL-5 melanoma
A498 renal = tested on: A498 renal
RXF 393 renal = tested on: RXF 393 renal
A549 NSCLC = tested on: A549 NSCLC
CAKI-1 renal = tested on: CAKI-1 renal
COLO 205 colon = tested on: COLO 205 colon
HOP-92 NSCLC = tested on: HOP-92 NSCLC
NCI/ADR-RES ovarian = tested on: NCI/ADR-RES ovarian
MDA-MB-231 breast = tested on: MDA-MB-231 breast
U251 CNS = tested on: U251 CNS
SW-620 colon = tested on: SW-620 colon
EKVX NSCLC = tested on: EKVX NSCLC
BT-549 breast = tested on: BT-549 breast
RPMI-8226 leukemia = tested on: RPMI-8226 leukemia
SK-MEL-28 melanoma = tested on: SK-MEL-28 melanoma
MOLT-4 leukemia = tested on: MOLT-4 leukemia
OVCAR-5 ovarian = tested on: OVCAR-5 ovarian
NCI-H522 lung = tested on: NCI-H522 lung
K-562 leukemia = tested on: K-562 leukemia
LOX IMVI melanoma = tested on: LOX IMVI melanoma
CCRF-CEM leukemia = tested on: CCRF-CEM leukemia
SN12C renal = tested on: SN12C renal
HS 578T breast = tested on: HS 578T breast
NCI-H226 lung = tested on: NCI-H226 lung
KM12 colon = tested on: KM12 colon
SNB-19 CNS = tested on: SNB-19 CNS
MALME-3M melanoma = tested on: MALME-3M melanoma
786-0 renal = tested on: 786-0 renal
HCT-15 colon = tested on: HCT-15 colon
HOP-62 NSCLC = tested on: HOP-62 NSCLC
IGROV1 ovarian = tested on: IGROV1 ovarian
HCT-116 colon = tested on: HCT-116 colon
SR leukemia = tested on: SR leukemia
OVCAR-3 ovarian = tested on: OVCAR-3 ovarian
DU-145 prostate = tested on: DU-145 prostate
ACHN renal = tested on: ACHN renal
HT29 colon = tested on: HT29 colon
NCI-H460 lung = tested on: NCI-H460 lung
TK-10 renal = tested on: TK-10 renal
M14 melanoma = tested on: M14 melanoma
UACC-62 melanoma = tested on: UACC-62 melanoma
SK-MEL-2 melanoma = tested on: SK-MEL-2 melanoma
HL-60(TB) leukemia = tested on: HL-60(TB) leukemia
SK-OV-3 ovarian = tested on: SK-OV-3 ovarian
UACC-257 melanoma = tested on: UACC-257 melanoma
SF-268 CNS = tested on: SF-268 CNS
MDA-MB-435 = tested on: MDA-MB-435
HCC-2998 colon = tested on: HCC-2998 colon
SNB-75 CNS = tested on: SNB-75 CNS
UO-31 renal = tested on: UO-31 renal
SF-295 CNS = tested on: SF-295 CNS

## CN(C)CCCNc1c2ccc(Cl)cc2nc2c1oc1ccc(Cl)cc12
OVCAR-8 ovarian
  GI50: 2.07 µM
  TGI: 4.45 µM
PC-3 prostate
  GI50: 1.81 µM
  TGI: 3.86 µM
SF-539 CNS
  GI50: 1.81 µM
  TGI: 3.24 µM
OVCAR-4 ovarian
  GI50: 1.67 µM
  TGI: 3.32 µM
T-47D breast
  GI50: 13.1 µM
  TGI: 29.2 µM
SK-MEL-5 melanoma
  GI50: 16.3 µM
  TGI: 29.8 µM
A498 renal
  GI50: 15.3 µM
  TGI: 31.4 µM
RXF 393 renal
  GI50: 2.68 µM
  TGI: 8.4 µM
A549 NSCLC
  GI50: 1.67 µM
  TGI: 3.18 µM
CAKI-1 renal
  GI50: 1.49 µM
  TGI: 2.9 µM
COLO 205 colon
  GI50: 4.58 µM
  TGI: 20 µM
HOP-92 NSCLC
  GI50: 1.41 µM
  TGI: 7.69 µM
NCI/ADR-RES ovarian
  GI50: 2.31 µM
  TGI: 6.59 µM
MDA-MB-231 breast
  GI50: 2.19 µM
  TGI: 5.94 µM
U251 CNS
  GI50: 1.76 µM
  TGI: 3.35 µM
SW-620 colon
  GI50: 1.64 µM
  TGI: 3.63 µM
EKVX NSCLC
  GI50: 4.76 µM
  TGI: 17.3 µM
BT-549 breast
  GI50: 11.4 µM
  TGI: 25 µM
RPMI-8226 leukemia
  GI50: 2.58 µM
  TGI: 7.84 µM
SK-MEL-28 melanoma
  GI50: 14 µM
  TGI: 27.2 µM
MOLT-4 leukemia
  GI50: 3.14 µM
  TGI: 11.8 µM
OVCAR-5 ovarian
  GI50: 7.03 µM
  TGI: 19.7 µM
NCI-H522 lung
  GI50: 4.22 µM
  TGI: 17 µM
K-562 leukemia
  GI50: 2.73 µM
LOX IMVI melanoma
  GI50: 1.89 µM
  TGI: 3.4 µM
CCRF-CEM leukemia
  GI50: 3.42 µM
  TGI: 12.2 µM
SN12C renal
  GI50: 1.72 µM
  TGI: 3.51 µM
HS 578T breast
  GI50: 8.82 µM
  TGI: 28.2 µM
NCI-H226 lung
  GI50: 6.32 µM
  TGI: 20.9 µM
KM12 colon
  GI50: 2.65 µM
  TGI: 8.35 µM
SNB-19 CNS
  GI50: 5.97 µM
  TGI: 18.8 µM
MALME-3M melanoma
  GI50: 4.76 µM
  TGI: 20.5 µM
786-0 renal
  GI50: 1.65 µM
  TGI: 3.25 µM
HCT-15 colon
  GI50: 2.1 µM
  TGI: 5.71 µM
HOP-62 NSCLC
  GI50: 5.21 µM
  TGI: 19.6 µM
IGROV1 ovarian
  GI50: 3.66 µM
  TGI: 15.9 µM
HCT-116 colon
  GI50: 1.43 µM
  TGI: 2.79 µM
SR leukemia
  GI50: 3.04 µM
  TGI: 10.1 µM
OVCAR-3 ovarian
  GI50: 2.24 µM
  TGI: 4.99 µM
DU-145 prostate
  GI50: 3.01 µM
  TGI: 9.1 µM
ACHN renal
  GI50: 1.7 µM
  TGI: 3.23 µM
HT29 colon
  GI50: 1.69 µM
  TGI: 3.5 µM
NCI-H460 lung
  GI50: 2.1 µM
  TGI: 4.8 µM
TK-10 renal
  GI50: 13.1 µM
  TGI: 26 µM
M14 melanoma
  GI50: 1.71 µM
  TGI: 3.78 µM
UACC-62 melanoma
  GI50: 16.4 µM
  TGI: 31.6 µM
SK-MEL-2 melanoma
  GI50: 13.6 µM
  TGI: 26.8 µM
HL-60(TB) leukemia
  GI50: 1.98 µM
  TGI: 4.81 µM
SK-OV-3 ovarian
  GI50: 10.1 µM
  TGI: 21.7 µM
UACC-257 melanoma
  GI50: 12.3 µM
  TGI: 25.5 µM
SF-268 CNS
  GI50: 3.45 µM
  TGI: 15.3 µM
MDA-MB-435
  GI50: 2.18 µM
  TGI: 5.57 µM
HCC-2998 colon
  GI50: 1.84 µM
  TGI: 3.38 µM
SNB-75 CNS
  GI50: 5.25 µM
  TGI: 19.2 µM
UO-31 renal
  GI50: 4.13 µM
  TGI: 18.3 µM
SF-295 CNS
  GI50: 4.72 µM
  TGI: 17.1 µM
